Key:
Assay type in all cases: in vivo
Amaranthus retroflexus = test: Post-emergence weed control test (greenhouse pot, spray); conditions: Amaranthus retroflexus, 504 h, 3 weeks after spraying, read-out: weed control effect (activity level, fresh weight growth inhibition rate), Amaranthus retroflexus
Source text: (§1) The activity level standard of harmful plant destruction (i.e. growth inhibition rate) is as follows: • Level 10: completely dead; • Level 9: above 90% growth inhibition rate; • Level 8: above 80% growth inhibition rate; • Level 7: above 70% growth inhibition rate; • Level 6: above 60% growth inhibition rate; • Level 5: above 50% growth inhibition rate; • Level 4: above 40% growth inhibition rate; • Level 3: above 30% growth inhibition rate; • Level 2: above 20% growth inhibition rate; • Level 1: below 20% growth inhibition rate; • Level 0: no effect.
(§2) The above described growth inhibition rates are fresh weight inhibition rates.
(§3) Experiment of post-emergence test: monocotyledonous and dicotyledonous weed seeds as well as main crop seeds (i.e., wheat, corn, rice, soybean, cotton, oilseed rape, millet and sorghum) were put into a plastic pot loaded with soil, then covered with 0.5-2 cm of soil, and the seeds were allowed to grow in good greenhouse environment. The test plants were treated at 4-5 leaf stage 2-3 weeks after sowing. The test compounds of the invention were dissolved in acetone respectively, then added with Tween-80 and diluted by a certain amount of water to give solutions with certain concentrations. The solution was sprayed to the plants with a sprayer. The plants were cultured for 3 weeks in the greenhouse.

Chenopodiaceae = test: as above; conditions: 504 h, 3 weeks after spraying, read-out: weed control effect (activity level, fresh weight growth inhibition rate), Chenopodiaceae
Source text: as §1, §2, §3

Rorippa indica = test: as above; conditions: 3 weeks after spraying; for weed control effect (activity level), Rorippa indica, comparison experiment: 300 g/ha
Source text: as §1, §2, §3

Setaria viridis = test: as above; conditions: 3 weeks after spraying; for weed control effect (activity level), Setaria viridis, comparison experiment: 300 g/ha
Source text: as §1, §2, §3

Veronica polita = test: as above; conditions: 3 weeks after spraying; for weed control effect (activity level), Veronica polita, comparison experiment: 300 g/ha
Source text: as §1, §2, §3

Digitaria sanguinalis = test: Post-emergence weed control test (comparative experiment); conditions: 300 g/ha, 3 weeks after spraying
Source text: as §1, §2, §3

Echinochloa crus-galli = test: as above; conditions: 300 g/ha, 3 weeks after spraying
Source text: as §1, §2, §3

| Structure (SMILES) | inhibition at 2000 g/ha (Amaranthus retroflexus; 2000 g/ha) | inhibition at 2000 g/ha (Chenopodiaceae; 2000 g/ha) | weed control effect (activity level), Rorippa indica, comparison experiment (Rorippa indica) | weed control effect (activity level), Setaria viridis, comparison experiment (Setaria viridis) | inhibition at 2000 g/ha (Setaria viridis; Setaria viridis, 504 h, 2000 g/ha, read-out: weed control effect (activity level, fresh weight growth inhibition rate), Setaria viridis) | weed control effect (activity level), Veronica polita, comparison experiment (Veronica polita) | inhibition at 2000 g/ha (Veronica polita; Veronica polita, 504 h, 2000 g/ha, read-out: weed control effect (activity level, fresh weight growth inhibition rate), Veronica polita) | weed control effect (activity level), Digitaria sanguinalis, comparison experiment (Digitaria sanguinalis) | weed control effect (activity level), Echinochloa crus-galli, comparison experiment (Echinochloa crus-galli) | inhibition at 3000 g/ha (Amaranthus retroflexus; 3000 g/ha) | inhibition at 3000 g/ha (Chenopodiaceae; 3000 g/ha) | inhibition at 3000 g/ha (Rorippa indica; Rorippa indica, 504 h, 3000 g/ha, read-out: weed control effect (activity level, fresh weight growth inhibition rate), Rorippa indica) | inhibition at 3000 g/ha (Veronica polita; Veronica polita, 504 h, 3000 g/ha, read-out: weed control effect (activity level, fresh weight growth inhibition rate), Veronica polita) |
| --- | --- | --- | --- | --- | --- | --- | --- | --- | --- | --- | --- | --- | --- |
| CCCCCOC(=O)Oc1cc(Cl)nnc1-c1cc(C)nn1C [Compound 1-1] | 100% | 100% | 10 | 10 | 100% | 10 | 100% | 8 (Level 8: above 80% growth inhibition rate) | 8 (Level 8: above 80% growth inhibition rate) |  |  |  |  |
| Cc1cc(-c2nnc(Cl)cc2O)n(C)n1 [Compound 1] |  |  | 10 | 10 |  | 10 |  | 7 (Level 7: above 70% growth inhibition rate) | 8 (Level 8: above 80% growth inhibition rate) | 100% | 100% | 100% | 100% |
